# Test results: the supplement of paper PMC10011410
# ± gives the standard deviation of the averaged measurements.
# System: U-2 OS
# Experiment: intracellular GSH:GSSG ratio (calculated); higher = more reduced glutathione pool
# Conditions: 5 µM; 24 h
# Procedure: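 Intracellular glutathione in U-2 OS cells after 24 h compound treatment at 5, 10 and 20 uM (some at 40 and 80 uM). Total glutathione and GSSG were measured with the GSH/GSSG-Glo kit, and the GSH:GSSG ratio was calculated. Mean of five technical replicate plates.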
row,SMILES,intracellular GSH:GSSG ratio
1,C=CC(=O)Nc1cc(Nc2nccc(-c3cn(C)c4ccccc34)n2)c(OC)cc1N(C)CCN(C)C,22.9
2,O=S1(=O)C=Cc2ccccc21,19.9
3,CC(=O)c1c(O)c(C)c(O)c(Cc2c(O)c3c(c(C(=O)C=Cc4ccccc4)c2O)OC(C)(C)C=C3)c1O,25.1
4,CC1(C)CC[C@]2(C(=O)n3ccnc3)CC[C@]3(C)[C@H](C(=O)C=C4[C@@]5(C)C=C(C#N)C(=O)C(C)(C)[C@@H]5CC[C@]43C)[C@@H]2C1,3.45
5,COC[C@H]1OC(=O)c2coc3c2[C@@]1(C)C1=C(C3=O)[C@@H]2CCC(=O)[C@@]2(C)C[C@H]1OC(C)=O,26.3
6,c1ccc(Nc2nc(-c3ccccc3)ns2)cc1,23.1
7,C=CC(=O)Nc1cccc(Oc2nc(Nc3ccc(N4CCN(C)CC4)cc3OC)ncc2Cl)c1,24.9
8,Cn1nnnc1SC1=CS(=O)(=O)c2ccccc21,3.69
9,CCC(=O)N1CCN(c2ccc(-n3c(=O)ccc4cnc5ccc(-c6cnc7ccccc7c6)cc5c43)cc2C(F)(F)F)CC1,16.1
10,C[C@@H]1C[C@H]2O[C@@H]2/C=C\C=C\C(=O)Cc2c(Cl)c(O)cc(O)c2C(=O)O1,27
11,C=CC(=O)Nc1cc2c(Nc3ccc(F)c(Cl)c3)ncnc2cc1OCCCN1CCOCC1,7.51
12,O=C1/C(=C/c2ccc(O)c(Br)c2)CCC/C1=C\c1ccc(O)c(Br)c1,15.5
13,CNC(=O)Nc1ccc2c(c1)CC[C@@]21OC(=O)N(CC(=O)N(Cc2ccc(F)cc2)[C@@H](C)C(F)(F)F)C1=O,27.9
14,O=C(O[C@@H]1Cc2c(O)cc(O)cc2O[C@@H]1c1cc(O)c(O)c(O)c1)c1cc(O)c(O)c(O)c1,24.8
15,O=S1(=O)C=C(Sc2nn(-c3ccccc3)c(=S)s2)c2ccccc21,11.7
16,C=CC(=O)Nc1ccc(CN2C(=O)N(c3cc(OC)cc(OC)c3)Cc3cnc(Nc4ccc(N5CCN(C)CC5)cc4)nc32)cc1,13.6
17,CCCCCCCCCCCCCCCc1cccc(O)c1C(=O)O,19
18,Cl.Cl.O=C(O)Cn1nnc(-c2ccc(CN(CCCCOc3ccc(CN4CCCC4)cc3)CCc3ccccc3)cc2)n1,20.2
19,COc1cc2ncnc(Nc3ccc(F)c(Cl)c3)c2cc1NC(=O)/C=C/CN1CCCCC1,10.8
20,Cc1cc(-c2ccccc2)cc(C(=O)NNS(=O)(=O)c2ccccc2)c1F,37
21,Cn1c(=O)n(-c2ccc(C(C)(C)C#N)cc2)c2c3cc(-c4cnc5ccccc5c4)ccc3ncc21,23.9
22,CCCCCC[C@H]1C(=O)O[C@H](C)[C@H](NC(=O)c2cccc(NC=O)c2O)C(=O)O[C@@H](C)[C@@H]1OC(=O)CC(C)C,21.6
23,COC(=O)[C@]1(C)CC[C@]2(C)CC[C@]3(C)C4=CC=C5C(=CC(=O)C(O)=C5C)[C@]4(C)CC[C@@]3(C)[C@@H]2C1,0.695

# Same assay, conditions: 10 µM; 24 h
row,SMILES,intracellular GSH:GSSG ratio
1,O=C(Nc1nc(-c2ccccc2)ns1)c1cccs1,13
2,Cc1cc2c(C(C)C)c(O)c(O)c(C=O)c2c(O)c1-c1c(C)cc2c(C(C)C)c(O)c(O)c(C=O)c2c1O,15.8
3,C=CC(=O)Nc1cc(Nc2nccc(-c3cn(C)c4ccccc34)n2)c(OC)cc1N(C)CCN(C)C,12.3
4,O=S1(=O)C=Cc2ccccc21,14.6
5,CC(=O)c1c(O)c(C)c(O)c(Cc2c(O)c3c(c(C(=O)C=Cc4ccccc4)c2O)OC(C)(C)C=C3)c1O,24.3
6,CC1(C)CC[C@]2(C(=O)n3ccnc3)CC[C@]3(C)[C@H](C(=O)C=C4[C@@]5(C)C=C(C#N)C(=O)C(C)(C)[C@@H]5CC[C@]43C)[C@@H]2C1,4.45
7,COC[C@H]1OC(=O)c2coc3c2[C@@]1(C)C1=C(C3=O)[C@@H]2CCC(=O)[C@@]2(C)C[C@H]1OC(C)=O,27.5
8,c1ccc(Nc2nc(-c3ccccc3)ns2)cc1,14.2
9,Cn1nnnc1SC1=CS(=O)(=O)c2ccccc21,2.11
10,CCC(=O)N1CCN(c2ccc(-n3c(=O)ccc4cnc5ccc(-c6cnc7ccccc7c6)cc5c43)cc2C(F)(F)F)CC1,15
11,O=C1CC(Nc2ccccc2)C(=O)N1Cc1ccccc1 (configuration not stated),33.5
12,C[C@@H]1C[C@H]2O[C@@H]2/C=C\C=C\C(=O)Cc2c(Cl)c(O)cc(O)c2C(=O)O1,7.74
13,C=CC(=O)Nc1cc2c(Nc3ccc(F)c(Cl)c3)ncnc2cc1OCCCN1CCOCC1,1.96
14,O=C1/C(=C/c2ccc(O)c(Br)c2)CCC/C1=C\c1ccc(O)c(Br)c1,14
15,CNC(=O)Nc1ccc2c(c1)CC[C@@]21OC(=O)N(CC(=O)N(Cc2ccc(F)cc2)[C@@H](C)C(F)(F)F)C1=O,31.4
16,O=C(O[C@@H]1Cc2c(O)cc(O)cc2O[C@@H]1c1cc(O)c(O)c(O)c1)c1cc(O)c(O)c(O)c1,18.8
17,O=S1(=O)C=C(Sc2nn(-c3ccccc3)c(=S)s2)c2ccccc21,7.07
18,C=CC(=O)Nc1ccc(CN2C(=O)N(c3cc(OC)cc(OC)c3)Cc3cnc(Nc4ccc(N5CCN(C)CC5)cc4)nc32)cc1,16.7
19,CCCCCCCCCCCCCCCc1cccc(O)c1C(=O)O,18.3
20,Cl.Cl.O=C(O)Cn1nnc(-c2ccc(CN(CCCCOc3ccc(CN4CCCC4)cc3)CCc3ccccc3)cc2)n1,19.8
21,COc1cc2ncnc(Nc3ccc(F)c(Cl)c3)c2cc1NC(=O)/C=C/CN1CCCCC1,7.42
22,Cc1cc(-c2ccccc2)cc(C(=O)NNS(=O)(=O)c2ccccc2)c1F,26
23,Cn1c(=O)n(-c2ccc(C(C)(C)C#N)cc2)c2c3cc(-c4cnc5ccccc5c4)ccc3ncc21,22.6
24,CCCCCC[C@H]1C(=O)O[C@H](C)[C@H](NC(=O)c2cccc(NC=O)c2O)C(=O)O[C@@H](C)[C@@H]1OC(=O)CC(C)C,23.5
25,COC(=O)[C@]1(C)CC[C@]2(C)CC[C@]3(C)C4=CC=C5C(=CC(=O)C(O)=C5C)[C@]4(C)CC[C@@]3(C)[C@@H]2C1,0.536

# Same assay, conditions: 20 µM; 24 h
row,SMILES,intracellular GSH:GSSG ratio
1,O=C(Nc1nc(-c2ccccc2)ns1)c1cccs1,23.8
2,Cc1cc2c(C(C)C)c(O)c(O)c(C=O)c2c(O)c1-c1c(C)cc2c(C(C)C)c(O)c(O)c(C=O)c2c1O,7.02
3,C=CC(=O)Nc1cc(Nc2nccc(-c3cn(C)c4ccccc34)n2)c(OC)cc1N(C)CCN(C)C,7.29
4,O=S1(=O)C=Cc2ccccc21,13.5
5,CC(=O)c1c(O)c(C)c(O)c(Cc2c(O)c3c(c(C(=O)C=Cc4ccccc4)c2O)OC(C)(C)C=C3)c1O,26.6
6,CC1(C)CC[C@]2(C(=O)n3ccnc3)CC[C@]3(C)[C@H](C(=O)C=C4[C@@]5(C)C=C(C#N)C(=O)C(C)(C)[C@@H]5CC[C@]43C)[C@@H]2C1,0.635
7,COC[C@H]1OC(=O)c2coc3c2[C@@]1(C)C1=C(C3=O)[C@@H]2CCC(=O)[C@@]2(C)C[C@H]1OC(C)=O,21.8
8,c1ccc(Nc2nc(-c3ccccc3)ns2)cc1,15.3
9,Cn1nnnc1SC1=CS(=O)(=O)c2ccccc21,0.199
10,CCC(=O)N1CCN(c2ccc(-n3c(=O)ccc4cnc5ccc(-c6cnc7ccccc7c6)cc5c43)cc2C(F)(F)F)CC1,13.4
11,O=C1CC(Nc2ccccc2)C(=O)N1Cc1ccccc1 (configuration not stated),34.3
12,C[C@@H]1C[C@H]2O[C@@H]2/C=C\C=C\C(=O)Cc2c(Cl)c(O)cc(O)c2C(=O)O1,3.63
13,C=CC(=O)Nc1cc2c(Nc3ccc(F)c(Cl)c3)ncnc2cc1OCCCN1CCOCC1,0.352
14,O=C1/C(=C/c2ccc(O)c(Br)c2)CCC/C1=C\c1ccc(O)c(Br)c1,11.9
15,CNC(=O)Nc1ccc2c(c1)CC[C@@]21OC(=O)N(CC(=O)N(Cc2ccc(F)cc2)[C@@H](C)C(F)(F)F)C1=O,30.9
16,O=C(O[C@@H]1Cc2c(O)cc(O)cc2O[C@@H]1c1cc(O)c(O)c(O)c1)c1cc(O)c(O)c(O)c1,11.4
17,O=S1(=O)C=C(Sc2nn(-c3ccccc3)c(=S)s2)c2ccccc21,2.96
18,C=CC(=O)Nc1ccc(CN2C(=O)N(c3cc(OC)cc(OC)c3)Cc3cnc(Nc4ccc(N5CCN(C)CC5)cc4)nc32)cc1,12.9
19,CCCCCCCCCCCCCCCc1cccc(O)c1C(=O)O,24.7
20,Cl.Cl.O=C(O)Cn1nnc(-c2ccc(CN(CCCCOc3ccc(CN4CCCC4)cc3)CCc3ccccc3)cc2)n1,15.4
21,COc1cc2ncnc(Nc3ccc(F)c(Cl)c3)c2cc1NC(=O)/C=C/CN1CCCCC1,1.96
22,Cc1cc(-c2ccccc2)cc(C(=O)NNS(=O)(=O)c2ccccc2)c1F,29
23,Cn1c(=O)n(-c2ccc(C(C)(C)C#N)cc2)c2c3cc(-c4cnc5ccccc5c4)ccc3ncc21,29.4
24,CCCCCC[C@H]1C(=O)O[C@H](C)[C@H](NC(=O)c2cccc(NC=O)c2O)C(=O)O[C@@H](C)[C@@H]1OC(=O)CC(C)C,22.4

# Same assay, conditions: 40 µM; 24 h
row,SMILES,intracellular GSH:GSSG ratio
1,Cc1cc2c(C(C)C)c(O)c(O)c(C=O)c2c(O)c1-c1c(C)cc2c(C(C)C)c(O)c(O)c(C=O)c2c1O,3.8
2,CC(=O)c1c(O)c(C)c(O)c(Cc2c(O)c3c(c(C(=O)C=Cc4ccccc4)c2O)OC(C)(C)C=C3)c1O,26.7
3,O=C1/C(=C/c2ccc(O)c(Br)c2)CCC/C1=C\c1ccc(O)c(Br)c1,9.48
4,O=C(O[C@@H]1Cc2c(O)cc(O)cc2O[C@@H]1c1cc(O)c(O)c(O)c1)c1cc(O)c(O)c(O)c1,14
5,CCCCCCCCCCCCCCCc1cccc(O)c1C(=O)O,19.7
6,Cl.Cl.O=C(O)Cn1nnc(-c2ccc(CN(CCCCOc3ccc(CN4CCCC4)cc3)CCc3ccccc3)cc2)n1,14.3

# Same assay, conditions: 80 µM; 24 h
row,SMILES,intracellular GSH:GSSG ratio
1,Cc1cc2c(C(C)C)c(O)c(O)c(C=O)c2c(O)c1-c1c(C)cc2c(C(C)C)c(O)c(O)c(C=O)c2c1O,1.25
2,CC(=O)c1c(O)c(C)c(O)c(Cc2c(O)c3c(c(C(=O)C=Cc4ccccc4)c2O)OC(C)(C)C=C3)c1O,15
3,O=C1/C(=C/c2ccc(O)c(Br)c2)CCC/C1=C\c1ccc(O)c(Br)c1,3.73
4,O=C(O[C@@H]1Cc2c(O)cc(O)cc2O[C@@H]1c1cc(O)c(O)c(O)c1)c1cc(O)c(O)c(O)c1,12
5,CCCCCCCCCCCCCCCc1cccc(O)c1C(=O)O,18.1
6,Cl.Cl.O=C(O)Cn1nnc(-c2ccc(CN(CCCCOc3ccc(CN4CCCC4)cc3)CCc3ccccc3)cc2)n1,14

# System: U-2 OS
# Experiment: total intracellular glutathione (GSH + GSSG) relative to DMSO (% of control); higher = more glutathione
# Conditions: 5 µM; 24 h
# Procedure: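 Total intracellular glutathione (GSH + GSSG) in U-2 OS cells by GSH/GSSG-Glo after 24 h compound treatment at 5, 10 and 20 uM (some at 40 and 80 uM), as percent of DMSO control. Five technical replicate plates, averaged.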
row,SMILES,total intracellular glutathione
1,O=C(Nc1nc(-c2ccccc2)ns1)c1cccs1,99.8 ± 3.8
2,Cc1cc2c(C(C)C)c(O)c(O)c(C=O)c2c(O)c1-c1c(C)cc2c(C(C)C)c(O)c(O)c(C=O)c2c1O,92.2 ± 3.2
3,C=CC(=O)Nc1cc(Nc2nccc(-c3cn(C)c4ccccc34)n2)c(OC)cc1N(C)CCN(C)C,86.9 ± 3.4
